Assay results: patent US4636518A, “Imidazole derivatives and pharmaceutical compositions” (G. D. Searle & Co., priority 1981, dated 1987)
Read-outs that look alike come from different tables or passages of the source.

What was measured:
[1] = tested on: thromboxane production in human platelet rich plasma (TxB2); assay: Thromboxane production in human platelet rich plasma (TxB2 radioimmunoassay, collagen stimulated); format: cell-based; settings: read-out: ACTIVITY (IC50 × 10^6 M)
Description: The antithrombotic activity of the compounds of the invention has been determined by their ability to inhibit production of thromboxane A2 (TxA2) by blood platelets the synthesis of which is an important factor in the aggregation of platelets and the initiation of thrombosis (R. J. Gryglewski, CRC Crit. Rev. Biochem., (1980), 7(4), 291).
The compounds of the invention have been tested by the following in vitro radioimmunoassays for their ability to inhibit thromboxane and affect prostacyclin production.
Thromboxane production in Human Platelet Rich Plasma
(§1) (a) Platelet rich plasma (prp) preparation
(§2) Human venous blood was […] from healthy male donors, who had denied any medication during the previous 14 days. Nine volumes of blood were mixed with one volume of 3.24% trisodium citrate. The citrated blood was centrifuged at 160 g for 10 mins. at 22° C. to obtain platelet rich plasma (prp). The platelets were then counted on a Coulter counter, and the platelet count was adjusted to 200,000 per μl with plasma.
(b) Thromboxane generation
The prp was then dispensed as aliquots into micro-Eppendorf tubes, maintained at 37° C. in a dry bath. The compounds, dissolved either in saline, ethanol, or dimethylsulphoxide, were added in duplicate to the prp aliquots to produce final concentrations in the range of 0.1-30 μg/ml. When ethanol and DMSO were used as the vehicle, triplicate controls containing the same percentage of vehicle as the test compounds were made. The final concentration of organic solvent was never more than 0.1%, which in previous experiments had no effect on TxB2 generation.
Following a 10 min. incubation with test compounds or vehicle, collagen was added to produce a final concentration of 20 μg/ml. The tubes were then whirly-mixed for 15 seconds and replaced in the dry bath for a further 10 minutes, controls received saline instead of collagen. The reaction was then stopped by rapid centrifugation (15000 g for 3 mins). The plasma was removed and frozen at -29° C. until assayed.
(c) Assay of Thromboxane B2
Briefly, 100 μl aliquots of the following, in 50 mM phosphate buffer+0.1% gelatin+thimerosal (pH 6.8) were incubated together for 16 hours at 4° C.: thromboxane TxB2 (plasma extract or standards 50 to 10,000 pg/ml), [^3 H]--TxB2 (approximately 15,000 dpm) and anti-TxB2 antiserum (0.5 μg/100 μl). The free and protein bound [^3 H]--TxB2 were separated by adsorption onto activated charcoal followed by centrifugation. […] of the supernatant was added to an aqueous scintillation fluid, and the radioactivity present was counted in a liquid scintillation counter. The binding of [^3 H]--TxB2 in the absence of added TxB2 was approximately 55%. The least amount of TxB2 to be detected accurately in the plasma was 50 pg/ml. Cross reactivity with other prostaglandins is less than 0.005% except PGD2 which is 1%.
Thus plasma samples were assayed to give a rough approximation of TxB2 content. The plasma was then appropriately diluted and assayed in duplicate to give accurate values.
The amount of TxB2 generated by the collagen was calculated by subtracting mean values obtained for the saline stimulated platelets from the mean values obtained from the collagen stimulated platelets. Then the amount of TxB2 generated in the presence of each concentration of compound was expressed as a % control and dose response curves were then constructed to determine the concentration of compound which produced a 50% inhibition.

[2] = tested on: collagen induced aggregation of human prp; assay: Inhibition of platelet aggregation in vitro, collagen induced (turbidometric); format: cell-based; settings: for IC50: Platelet, human prp, collagen, read-out: I.C.50 (μM) vs COLLAGEN; for inhibition of collagen induced aggregation of human prp: result in words
Experimental: as §1
as §2, with “Nine volumes of blood were mixed with one volume of 3.24% trisodium citrate.” left out
(§3) Inhibition of Platelet Aggregation in vitro

[3] = tested on: platelet aggregation in the male retired breeder rat; assay: Antiplatelet activity in the male retired breeder rat model (platelet aggregate ratio); format: in vivo; settings: read-out: EX50 (3h post oral administration)
Experimental: The retired breeder male rat may be utilized any time from 24 hours to 6 months after receipt without prior fasting or manipulation. […] The test (as described in R. N. Saunders, T. S. Burns, M. R. Selzer and E. R. Waskawic, Lab. Animal Sci., (1977), 27, 757-761) consists of the oral administration of the investigative compound either dissolved in or suspended in propylene glycol 400 at 20 mg/kg to four retired breeder male rats (40 mg of compound required). Three hours from the time of administration, the rats are ether anaesthetized, the abdominal cavity exposed and one ml of blood is withdrawn into each of two syringes from the vena cava. The first syringe contains four ml of buffered citrate/formalin solution and the second syringe contains four ml of buffered citrate alone. The syringes are inverted, held at room temperature for 15 minutes and the contents are centrifuged at 170 g for 14 minutes. Platelet counts are obtained on the undiluted solutions by means of a hemacytometer under 430×phase-contrast microscopy. The platelet aggregate ratio is obtained by dividing the platelet count of the first syringe by that of the second syringe. A ratio of 1.0 would indicate that no platelet aggregates are present whereas ratios below 1.0 indicate the presence and degree of platelet aggregate formation which has occurred.

[4] = tested on: arachidonic acid induced aggregation of human prp; assay: Inhibition of platelet aggregation in vitro, arachidonic acid induced (turbidometric); format: cell-based; settings: for IC50: Platelet, human prp, arachidonic acid, read-out: I.C.50 (μM) vs ARACHIDONIC ACID; for inhibition of arachidonic acid induced aggregation of human prp: result in words
Experimental: as §1, §2, §3
In addition to the above tests, platelet aggregation in citrated prop (prepared as above) against a variety of aggregating agents was measured turbidometrically in a Payton Dual Channel Aggregometer (method as described in G.V.R. Born, Nature, (1962), 194, 927).

[5] = tested on: aggregation of human platelet rich-plasma; assay: Aggregation of human platelet rich plasma (aggregating agent not stated); format: cell-based; settings: in vitro, result in words
[6] = tested on: PGI2 synthesis in cultured bovine arterial endothelial cells; assay: Prostacyclin production in cultured aortic endothelial cells (6-keto PGF1α radioimmunoassay); format: cell-based; settings: for Net PGI2 synthesis: control 120
Description: Prostacyclin Production in Cultured Aortic Endothelial Cells
Bovine aortic arch tissue was obtained from a local abattoir, and transported to the laboratory on ice. Arterial endothelial cells were obtained from the washed (phosphate buffered saline) aortic arch tissue by gentle scraping of the intima, within two hours of sacrifice. Cell suspensions were washed by centrifugation, resuspended, and propagated in Roswell Park Memorial Institute (RPMI) 1640 medium (Moore, G. E., J.A.M.A., (1967), 199, 519) 1640 medium+20% foetal calf serum (FCS)+antibiotics (1-2 doublings). The cells were then trypsinised, cloned by limiting dilution, selected colonies grown to confluence (3-4 passages), and stored in liquid nitrogen. When required, batches of cells were removed from store, resuscitated, and propagated in RPMI medium+10% FCS+antibiotics (passaged 6-15 times). At trypsinisation, representative cells from each passage were transferred to multiwell plates (1×10^5 cells/well) and incubated for 3 days (final count 3.5×10^5 cells/well).
The medium in each well of the plate was exchanged for serum and antibiotic free RPMI 1640, and a time 0 sample (100 μl) taken. Drugs or vehicle were next added as required, and a further sample (800 μl) taken from each well after a 60 minute incubation at 37° C. with gentle shaking. Prostacyclin synthesis and release into the medium over this period was estimated using an RIA technique for 6-keto PGF1α, the stable metabolite of PGI2 (New England Nuclear 6-keto PGF1α RIA kit, Catalogue No. NEK 008).
(b) Assay of 6-keto PGF1α
Briefly, 100 μl aliquots in 50 mM phosphate buffer+0.1% gelatin+0.01% thimerosal (pH 6.8) of the following were incubated together for 16 hours at 4° C.: 6-keto PGF1α (incubation medium extract or standards 10-1000 pg/0.1 ml), [^3 H]-6-keto PGF1α (approximately 15000 dpm) anti-6-keto PGF1α antiserum. The […] and protein bound [^3 H]-6-keto PGF1α were separated by adsorption onto activated charcoal followed by centrifugation. 850 μl of the supernatant was added to an aqueous scintillation fluid, and the radioactivity present counted in a liquid scintillation counter. The binding of [^3 H]-6-keto PGF1α in the absence of added 6-keto PGF1α was approximately 40%. The least amount of 6-keto PGF1α to be detected accurately in the samples was 100 pg/ml. Cross reactivity with other prostaglandins was less than 0.3% except PGE2 (2%) and PGF2α (2.7%).

[7] = male breeder rat, oral, 3h post administration

SMILES	IC50 [1]	IC50 [2]	ED50 [3, 7]	IC50 [4]	also measured
OCCN(CCO)c1nc(N2CCCCC2)c2nc(N(CCO)CCO)nc(N3CCCCC3)c2n1 [dipyridamole, reference compound]	–	> 200 µM	1.8 mg/kg	> 200 µM	–
COc1ccc(COCC(Cn2ccnc2)OCc2ccccc2)cc1 (centres unmarked) [Example 2]	11 µM	–	–	–	–
O=C1C(CC[S+]([O-])c2ccccc2)C(=O)N(c2ccccc2)N1c1ccccc1 (centres unmarked) [sulphinpyrazone, reference compound]	–	173 µM	4.1 mg/kg	–	–
COc1ccc(COCC(Cn2ccnc2)OCc2ccc3c(c2)OCO3)cc1 (centres unmarked) [Example 20]	4 µM	89 µM	1.8 mg/kg	24 µM	inhibition of collagen induced aggregation of human prp [2]: clearly more active than aspirin, dipyridamole, or sulphinpyrazone; inhibition of arachidonic acid induced aggregation of human prp [4]: clearly more active than aspirin, dipyridamole, or sulphinpyrazone
COc1ccc(COCC(Cn2ccnc2)OCc2ccc(OC)cc2)cc1 (centres unmarked) [Example 1, 1-[2-[(4-methoxyphenyl)methoxy]-3-[(4-methoxyphenyl)methoxy]propyl]-1H-imidazole]	12 µM	103 µM	0.49 mg/kg	31 µM	aggregation of human platelet rich-plasma [5]: the aggregation of human platelet rich-plasma; inhibition of collagen induced aggregation of human prp [2]: clearly more active than aspirin, dipyridamole, or sulphinpyrazone; inhibition of arachidonic acid induced aggregation of human prp [4]: clearly more active than aspirin, dipyridamole, or sulphinpyrazone; Net PGI2 synthesis ([6]; 26 µM): 125 pg 6-keto PGF1 α/60 min/3.5 × 10^5; Net PGI2 synthesis ([6]; 7.8 μm): 130 pg 6-keto PGF1 α/60 min/3.5 × 10^5; Net PGI2 synthesis ([6]; 26.0 μm): 106 pg 6-keto PGF1 α/60 min/3.5 × 10^5; Net PGI2 synthesis ([6]; 78.0 μm): 135 pg 6-keto PGF1 α/60 min/3.5 × 10^5; activation at 2.6 µM ([6]; Bos taurus, Endothelial cell, 1 h, 2.6 μm, 60 min, read-out: % Change (PGI2 synthesis)): 4%; activation at 7.8 µM ([6]; Bos taurus, Endothelial cell, 1 h, 7.8 μm, 60 min, read-out: % Change (PGI2 synthesis)): 8%; activation at 26 µM ([6]; Bos taurus, Endothelial cell, 1 h, 26.0 μm, 60 min, read-out: % Change (PGI2 synthesis)): -12%; activation at 78 µM ([6]; Bos taurus, Endothelial cell, 1 h, 78.0 μm, 60 min, read-out: % Change (PGI2 synthesis)): 12%; effect on production of prostacyclin ([6]; at concentrations equivalent to those which inhibit TxA2 formation, result in words): not to significantly effect production of prostacyclin; effect on basal PGI2 synthesis ([6]; at concentrations substantially in excess of those which inhibit platelet thromboxane synthetase, 1 hour, result in words): no significant effect on basal PGI2 synthesis
CC(=O)Oc1ccccc1C(=O)O [aspirin, reference compound]	–	–	–	56 µM	ED50 ([3]; Rattus norvegicus, po, 3 h): 7.7 mg/kg

More lines, main results first:

IC50 [1]	SMILES	IC50 [2]	ED50 [3, 7]	IC50 [4]	also measured
22 µM	COc1ccc(COC(CSCc2ccc(OC)cc2)Cn2ccnc2)cc1 (centres unmarked) [Example 35]	–	–	–	–
20 µM	COc1ccc(COCC(Cn2ccnc2)OCc2ccsc2)cc1 (centres unmarked) [Example 30]	–	–	–	–
12 µM	COc1ccc(COCC(Cn2ccnc2)OCc2ccc(C#N)cc2)cc1 (centres unmarked) [Example 24]	–	–	–	–
23 µM	COc1ccc(COCC(Cn2ccnc2)OCc2ccc(Cl)cc2)cc1 (centres unmarked) [Example 4]	–	–	–	–
13 µM	c1cncc(COC(COCc2ccc3c(c2)OCO3)Cn2ccnc2)c1 (centres unmarked) [Example 34]	–	–	–	–
14 µM	COc1ccc(COCC(Cn2ccnc2)OCc2cccc(OC)c2)cc1 (centres unmarked) [Example 15]	–	–	–	–
10 µM	COc1ccc(COCC(Cn2ccnc2)OCc2ccccn2)cc1 (centres unmarked) [Example 28]	–	–	–	–
